Measurements published in patent US10844032B2, “Substituted benzofuran, benzothiophene and indole Mcl-1 inhibitors” (Vanderbilt University, priority 2012, dated 2020).

Target: recombinant Mcl-1 (residues 172-327) (Homo sapiens (Human), UniProt Q07820)
Experiment: Bak peptide fluorescence polarization anisotropy competition assay, Mcl-1
Format: binding
Details: Table 2, Ki range; FITC-Bak peptide 10 nM, Mcl-1 14 nM; read-out: Ki for inhibition of Mcl-1

Sequence of recombinant Mcl-1 (residues 172-327) (Q07820 172-327): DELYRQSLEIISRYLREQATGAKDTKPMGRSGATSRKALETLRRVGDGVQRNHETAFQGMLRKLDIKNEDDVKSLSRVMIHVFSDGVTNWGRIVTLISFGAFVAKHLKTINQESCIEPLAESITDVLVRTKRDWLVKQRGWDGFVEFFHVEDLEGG

Ki [nM] | SMILES
≤ 100 | COCc1nn(C)c(C)c1-c1cccc2c(CCCOc3cc(C)c(Cl)c(C)c3)c(C(=O)NS(=O)(=O)c3ccccc3)[nH]c12 [Example 130, 3-(3-(4-chloro-3,5-dimethylphenoxy)propyl)-7-(3-(methoxymethyl)-1,5-dimethyl-1H-pyrazol-4-yl)-N-(phenylsulfonyl)-1H-indole-2-carboxamide]
≤ 100 | CC(=O)N1CCN(c2ccc(OCc3nn(C)c(C)c3-c3cccc4c(CCCOc5cc(C)c(Cl)c(C)c5)c(C(=O)NS(=O)(=O)c5ccccc5)n(Cc5cccnc5)c34)cc2)CC1 [Example 124, 7-(3-((4-(4-acetylpiperazin-1-yl)phenoxy)methyl)-1,5-dimethyl-1H-pyrazol-4-yl)-3-(3-(4-chloro-3,5-dimethylphenoxy)propyl)-N-(phenylsulfonyl)-1-(pyridin-3-ylmethyl)-1H-indole-2-carboxamide]
≤ 100 | Cc1cc(OCCCc2c(C(=O)NS(=O)(=O)c3ccccc3)[nH]c3c(-c4cnn(C)c4)c(Cl)ccc23)cc(C)c1Cl [Example 121, 6-chloro-3-(3-(4-chloro-3,5-dimethylphenoxy)propyl)-7-(1-methyl-1H-pyrazol-4-yl)-N-(phenylsulfonyl)-1H-indole-2-carboxamide]
≤ 100 | COc1ccncc1-c1cccc2c(CCCOc3cc(C)c(Cl)c(C)c3)c(C(=O)NS(=O)(=O)c3ccccc3)[nH]c12 [Example 90, 3-(3-(4-chloro-3,5-dimethylphenoxy)propyl)-7-(4-methoxypyridin-3-yl)-N-(phenylsulfonyl)-1H-indole-2-carboxamide]

Same assay, conditions: read-out: Ki for inhibition of Mcl-1

SMILES | Ki [nM]
Cc1cc(OCCCc2c(C(=O)NS(=O)(=O)CC3CCN(C(=O)c4cccn4C)CC3)[nH]c3ccccc23)cc(C)c1Cl [Example 211, 3-(3-(4-chloro-3,5-dimethylphenoxy)propyl)-N-(((1-(1-methyl-1H-pyrrole-2-carbonyl)piperidin-4-yl)methyl)sulfonyl)-1H-indole-2-carboxamide] | 301 to 500
CCOc1ccc(Oc2ccc(S(=O)(=O)NC(=O)c3[nH]c4ccccc4c3CCCOc3cc(C)c(Cl)c(C)c3)cc2)cc1 [Example 143, 3-(3-(4-chloro-3,5-dimethylphenoxy)propyl)-N-((4-(4-ethoxyphenoxy)phenyl)sulfonyl)-1H-indole-2-carboxamide] | 301 to 500
CS(=O)(=O)NC(=O)c1[nH]c2ccccc2c1CCCOc1ccc2c(c1)CCCC2 [Example 38, N-(methylsulfonyl)-3-(3-((5,6,7,8-tetrahydronaphthalen-2-yl)oxy)propyl)-1H-indole-2-carboxamide] | 1000 to 9990
COc1ccc(Oc2cccc(S(=O)(=O)NC(=O)c3[nH]c4ccccc4c3CCCOc3cc(C)c(Cl)c(C)c3)c2)cc1 [Example 142, 3-(3-(4-chloro-3,5-dimethylphenoxy)propyl)-N-((3-(4-methoxyphenoxy)phenyl)sulfonyl)-1H-indole-2-carboxamide] | 301 to 500
Cc1cc(OCCCc2c(C(=O)NS(=O)(=O)c3ccc(C(=O)NC4CCOCC4)o3)[nH]c3cc(Cl)ccc23)cc(C)c1Cl [Example 263, 6-chloro-3-(3-(4-chloro-3,5-dimethylphenoxy)propyl)-N-((5-((tetrahydro-2H-pyran-4-yl)carbamoyl)furan-2-yl)sulfonyl)-1H-indole-2-carboxamide] | 101 to 299
Cc1cc(OCCCc2c(C(=O)NS(=O)(=O)c3ccncc3)[nH]c3ccccc23)cc(C)c1Cl [Example 134, 3-(3-(4-chloro-3,5-dimethylphenoxy)propyl)-N-(pyridin-4-ylsulfonyl)-1H-indole-2-carboxamide] | 301 to 500
Cc1cc(OCCCc2c(C(=O)NS(=O)(=O)CCNC(=O)c3cc(C)n(C4CC4)c3C)[nH]c3ccccc23)cc(C)c1Cl [Example 193, 3-(3-(4-chloro-3,5-dimethylphenoxy)propyl)-N-((2-(1-cyclopropyl-2,5-dimethyl-1H-pyrrole-3-carboxamido)ethyl)sulfonyl)-1H-indole-2-carboxamide] | 101 to 299
Cc1ccc2c(CCCOc3cccc4ccccc34)c(C(=O)NS(C)(=O)=O)[nH]c2c1 [Example 118, 6-Methyl-N-(methylsulfonyl)-3-(3-(naphthalen-1-yloxy)propyl)-1H-indole-2-carboxamide] | 1000 to 9990
O=C(CCc1ccccc1)NCCS(=O)(=O)NC(=O)c1[nH]c2cc(Cl)ccc2c1CCCOc1cccc2ccccc12 [Example 240, 6-chloro-3-(3-(naphthalen-1-yloxy)propyl)-N-((2-(3-phenylpropanamido)ethyl)sulfonyl)-1H-indole-2-carboxamide] | 301 to 500
COc1ccc(Oc2cccc(S(=O)(=O)NC(=O)c3[nH]c4cc(Cl)ccc4c3CCCOc3cc(C)c(Cl)c(C)c3)c2)cc1 [Example 220, 6-chloro-3-(3-(4-chloro-3,5-dimethylphenoxy)propyl)-N-((3-(4-methoxyphenoxy)phenyl)sulfonyl)-1H-indole-2-carboxamide] | 101 to 299
Cc1cc(OCCCc2c(C(=O)NS(C)(=O)=O)sc3cc(Cl)ccc23)cc(C)c1Cl [Example 72, 6-chloro-3-(3-(4-chloro-3,5-dimethylphenoxy)propyl)-N-(methylsulfonyl)benzo[b]thiophene-2-carboxamide] | 1000 to 9990
Cc1cc(OCCCc2c(C(=O)NS(=O)(=O)CCNC(=O)c3ccc(Oc4ccccc4)cc3)[nH]c3ccccc23)cc(C)c1Cl [Example 166, 3-(3-(4-chloro-3,5-dimethylphenoxy)propyl)-N-((2-(4-phenoxybenzamido)ethyl)sulfonyl)-1H-indole-2-carboxamide] | 301 to 500

The remaining lines, values ahead:

Ki [nM] | SMILES
101 to 299 | COCc1nn(C)c(C)c1-c1cccc2c(CCCOc3cc(C)c(Cl)c(C)c3)c(C(=O)NS(=O)(=O)c3ccccc3)n(Cc3cccnc3)c12 [Example 128, 3-(3-(4-Chloro-3,5-dimethylphenoxy)propyl)-7-(3-(methoxymethyl)-1,5-dimethyl-1H-pyrazol-4-yl)-N-(phenylsulfonyl)-1-(pyridin-3-ylmethyl)-1H-indole-2-carboxamide]
101 to 299 | Cc1cc(OCCCc2c(C(=O)NS(=O)(=O)CCNC(=O)c3ccccn3)[nH]c3ccccc23)cc(C)c1Cl [Example 190, 3-(3-(4-chloro-3,5-dimethylphenoxy)propyl)-N-((2-(picolinamido)ethyl)sulfonyl)-1H-indole-2-carboxamide]
101 to 299 | Cc1cc(OCCCc2c(C(=O)NS(=O)(=O)CCNC(=O)c3ccco3)[nH]c3ccccc23)cc(C)c1Cl [Example 171, 3-(3-(4-chloro-3,5-dimethylphenoxy)propyl)-N-((2-(furan-2-carboxamido)ethyl)sulfonyl)-1H-indole-2-carboxamide]
501 to 999 | Cc1cc(OCCCc2c(C(=O)NS(C)(=O)=O)n(C)c3cc(Cl)ccc23)cc(C)c1Cl [Example 268, 6-chloro-3-(3-(4-chloro-3,5-dimethylphenoxy)propyl)-1-methyl-N-(methylsulfonyl)-1H-indole-2-carboxamide]
101 to 299 | Cc1cc(OCCCc2c(C(=O)NS(=O)(=O)c3ccccc3)[nH]c3c(-c4cccnc4)cccc23)cc(C)c1Cl [Example 93, 3-(3-(4-chloro-3,5-dimethylphenoxy)propyl)-N-(phenylsulfonyl)-7-(pyridin-3-yl)-1H-indole-2-carboxamide]
101 to 299 | Cc1cc(OCCCc2c(C(=O)NS(=O)(=O)c3ccccc3)[nH]c3c(-c4ccncc4)cccc23)cc(C)c1Cl [Example 94, 3-(3-(4-chloro-3,5-dimethylphenoxy)propyl)-N-(phenylsulfonyl)-7-(pyridin-4-yl)-1H-indole-2-carboxamide]
